Measurements reported in patent US9642831B2, “Substituted chromanes and method of use” (AbbVie S.á.r.l., priority 2014, dated 2017).

Target: F508delCFTR (Homo sapiens, UniProt P13569, DEL508-508)
Experiment: Cell Surface Expression-Horse Radish Peroxidase (CSE-HRP) assay
Type: cell-based
Design: expressed in transfected cells; host or cells: CFBE41o- human lung derived epithelial cell line, doxycycline-inducible
Conditions: CFBE4lo-F508delCFTR-HRP cells; for EC50: 18-24 hours at 33° C., 8-point curve, highest concentration 20 μM, luminescence readout; for Emax: maximum % activity at any tested concentration, normalized to on-plate positive control (3 μM Example 1)
From the text: Cell Surface Expression-Horse Radish Peroxidase (CSE-HRP) Assay:
A cellular assay for measuring the F508delCFTR cell surface expression after correction with test compounds was developed in human lung derived epithelial cell line (CFBE4lo-) (Veit G et al, (2012) Mol Biol Cell. 23(21): 4188-4202). This was achieved by expressing the F508delCFTR mutation along with a horseradish peroxidase (HRP) in the fourth exofacial loop and then measuring the HRP activity using luminescence readout from these cells, CFBE4lo-F508delCFTR-HRP, that were incubated overnight with the test corrector compounds. Briefly, for this primary assay, the CFBE4lo-F508delCFTR-HRP cells were plated in 384-well plates (Greiner Bio-one; Cat 781080) at 4,000 cells/well along with 0.5 μg/mL doxycycline to induce the F508delCFTR-HRP expression and further incubated at 37° C., 5% CO2 for 72 hours. The test compounds were then added at the required concentrations and further incubated for 18-24 hours at 33° C. The highest concentration tested was 20 μM with an 8-point concentration response curve using a 3-fold dilution. Three replicate plates were run to determine one EC50. All plates contained negative controls (dimethyl sulfoxide, DMSO) and positive controls (3 μM of 3-[(2R,4R)-4-({[1-(2,2-difluoro-1,3-benzodioxol-5-yl)cyclopropyl]carbonyl}amino)-7-methoxy-3,4-dihydro-2H-chromen-2-yl]benzoic acid) as well as on-plate concentration response of the positive control. Post incubation, the plates were washed 5× times with Dulbecco's phosphate buffered saline (DPBS), followed by the addition of the HRP substrate, luminol (50 μL), and measuring the HRP activity using luminescence readout on EnVision® Multilabel Plate Reader (Perkin Elmer; product number 2104-0010). The raw counts from the experiment are analyzed using Accelrys® Assay Explorer v3.3.
Z′ greater than 0.5 was used as passing quality control criteria for the plates.
The Z′ is defined as: 1−[3*SDPositive Control+3*SDNegative Control/Absolute(MeanPositive Control−MeanNegative Control)] wherein “SD” is standard deviation.
The % activity measured at each of the 8 test concentrations of the test compound was normalized to the on-plate positive control using the following formula: % activity=[(test compound response−DMSO response)/(positive control response−DMSO response)]*100
The maximum % activity achieved for the test compound at any tested concentration is presented in Table 1 along with the EC50 calculated using the following general sigmoidal curve with variable Hill slope equation (described as Model 42 in the Accelrys® Assay Explorer v3.3 software): y=(a−d)/(1+(x/c)^b)+d
General sigmoidal curve with concentration, response, top, bottom, EC50 and Hill slope.
This model describes a sigmoidal curve with an adjustable baseline, a. The equation can be used to fit curves where response is either increasing or decreasing with respect to the independent variable, “x”.
“x” is a concentration of drug under test.
“a” is the maximum response, and “d” is the minimum response
“c” is the inflection point (EC50) for the curve. That is, “y” is halfway between the lower and upper asymptotes when x=c.
“b” is the slope-factor or Hill coefficient. The sign of b is positive when the response increases with increasing dose and is negative when the response decreases with increasing dose (inhibition).

Sequence of F508delCFTR (P13569 with tags, fused parts or gaps DEL508-508): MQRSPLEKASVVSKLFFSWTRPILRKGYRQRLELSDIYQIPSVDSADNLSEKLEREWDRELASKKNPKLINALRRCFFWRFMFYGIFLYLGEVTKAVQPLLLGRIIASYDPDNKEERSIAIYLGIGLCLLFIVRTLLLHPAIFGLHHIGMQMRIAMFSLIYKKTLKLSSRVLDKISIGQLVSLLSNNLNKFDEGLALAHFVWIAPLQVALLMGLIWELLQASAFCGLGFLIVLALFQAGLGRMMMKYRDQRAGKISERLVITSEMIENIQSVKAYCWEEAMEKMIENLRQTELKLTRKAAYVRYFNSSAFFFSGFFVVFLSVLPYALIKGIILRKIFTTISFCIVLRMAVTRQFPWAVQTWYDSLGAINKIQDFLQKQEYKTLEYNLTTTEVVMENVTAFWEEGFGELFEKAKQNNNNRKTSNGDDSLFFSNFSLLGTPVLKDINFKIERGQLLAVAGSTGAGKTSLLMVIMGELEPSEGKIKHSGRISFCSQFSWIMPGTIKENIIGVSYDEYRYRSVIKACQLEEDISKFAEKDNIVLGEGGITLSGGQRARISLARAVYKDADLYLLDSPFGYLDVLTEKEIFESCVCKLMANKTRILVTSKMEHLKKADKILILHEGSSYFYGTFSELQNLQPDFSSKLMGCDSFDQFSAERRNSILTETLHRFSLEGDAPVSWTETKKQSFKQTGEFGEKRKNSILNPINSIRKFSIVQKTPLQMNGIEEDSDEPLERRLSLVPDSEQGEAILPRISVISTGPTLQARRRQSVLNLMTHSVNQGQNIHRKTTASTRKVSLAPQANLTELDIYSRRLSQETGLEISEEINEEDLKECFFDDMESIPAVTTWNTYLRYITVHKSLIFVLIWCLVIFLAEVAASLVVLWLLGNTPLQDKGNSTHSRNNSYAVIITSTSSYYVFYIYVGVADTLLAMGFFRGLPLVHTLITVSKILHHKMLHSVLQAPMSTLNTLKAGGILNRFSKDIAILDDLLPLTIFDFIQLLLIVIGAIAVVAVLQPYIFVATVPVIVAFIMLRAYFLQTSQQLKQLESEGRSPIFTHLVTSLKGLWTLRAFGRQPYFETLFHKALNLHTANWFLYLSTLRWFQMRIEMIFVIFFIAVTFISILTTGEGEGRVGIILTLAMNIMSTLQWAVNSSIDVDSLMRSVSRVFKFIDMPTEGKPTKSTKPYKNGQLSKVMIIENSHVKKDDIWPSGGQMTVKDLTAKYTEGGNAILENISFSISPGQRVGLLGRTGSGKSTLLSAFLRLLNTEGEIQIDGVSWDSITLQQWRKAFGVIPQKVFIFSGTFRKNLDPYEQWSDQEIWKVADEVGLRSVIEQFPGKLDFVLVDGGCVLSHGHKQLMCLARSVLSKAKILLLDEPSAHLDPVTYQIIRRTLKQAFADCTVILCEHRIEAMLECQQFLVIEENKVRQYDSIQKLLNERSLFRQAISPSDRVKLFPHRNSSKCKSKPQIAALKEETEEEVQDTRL

SMILES	EC50 [nM]	Emax [%]
COC(=O)c1ccc2c(c1)[C@H](NC(=O)C1(c3ccc4c(c3)OC(F)(F)O4)CC1)C[C@H](c1cccc(OC)c1)O2 [Example 47, methyl (2R,4R)-4-({[1-(2,2-difluoro-1,3-benzodioxol-5-yl)cyclopropyl]carbonyl}amino)-2-(3-methoxyphenyl)-3,4-dihydro-2H-chromene-6-carboxylate]	4000	43
COc1ccc2c(c1)O[C@@H](C(=O)NC(CO)c1ccccc1)C[C@@H]2NC(=O)C1(c2ccc3c(c2)OC(F)(F)O3)CC1 (mixture of isomers) [Example 190, rac-(2R,4S)-4-({[1-(2,2-difluoro-1,3-benzodioxol-5-yl)cyclopropyl]carbonyl}amino)-N-(2-hydroxy-1-phenylethyl)-7-methoxy-3,4-dihydro-2H-chromene-2-carboxamide]	2790	39
COc1ccc2c(c1)O[C@@H](C(=O)NC1c3ccccc3CC1O)C[C@@H]2NC(=O)C1(c2ccc3c(c2)OC(F)(F)O3)CC1 (mixture of isomers) [Example 200, rac-(2R,4S)-4-({[1-(2,2-difluoro-1,3-benzodioxol-5-yl)cyclopropyl]carbonyl}amino)-N-(2-hydroxy-2,3-dihydro-1H-inden-1-yl)-7-methoxy-3,4-dihydro-2H-chromene-2-carboxamide]	2350	61
C[C@@]1(C(F)(F)F)C[C@@H](NC(=O)C2(c3ccc4c(c3)OC(F)(F)O4)CC2)c2ccccc2O1 [Example 85, 1-(2,2-difluoro-1,3-benzodioxol-5-yl)-N-[(2S,4R)-2-methyl-2-(trifluoromethyl)-3,4-dihydro-2H-chromen-4-yl]cyclopropanecarboxamide]	6810	108
O=C(NC1c2ccccc2OCC1Cc1ccccc1)C1(c2ccc3c(c2)OC(F)(F)O3)CC1 (centres unmarked) [Example 73, N-(3-benzyl-3,4-dihydro-2H-chromen-4-yl)-1-(2,2-difluoro-1,3-benzodioxol-5-yl)cyclopropanecarboxamide]	7630	57
COc1ccc2c(c1)C(NC(=O)C1(c3ccc4c(c3)OC(F)(F)O4)CC1)C(Cc1ccc(OC)c(OC)c1)CO2 (centres unmarked) [Example 72, 1-(2,2-difluoro-1,3-benzodioxol-5-yl)-N-[3-(3,4-dimethoxybenzyl)-6-methoxy-3,4-dihydro-2H-chromen-4-yl]cyclopropanecarboxamide]	2500	71
O=C(NC1CC(c2ccc(Cl)cc2)Oc2ccccc21)C1(c2ccc3c(c2)OC(F)(F)O3)CC1 (centres unmarked) [Example 68, N-[2-(4-chlorophenyl)-3,4-dihydro-2H-chromen-4-yl]-1-(2,2-difluoro-1,3-benzodioxol-5-yl)cyclopropanecarboxamide]	870	89
Cc1ccc2c(c1)O[C@@H](c1cccc(C(=O)NCC3(O)CCC3)c1)C[C@H]2NC(=O)C1(c2ccc3c(c2)OC(F)(F)O3)CC1 [Example 54, 3-[(2R,4R)-4-({[1-(2,2-difluoro-1,3-benzodioxol-5-yl)cyclopropyl]carbonyl}amino)-7-methyl-3,4-dihydro-2H-chromen-2-yl]-N-[(1-hydroxycyclobutyl)methyl]benzamide]	860	92
CCOC(=O)c1csc([C@@H]2C[C@H](NC(=O)C3(c4ccc5c(c4)OC(F)(F)O5)CC3)c3ccc(OC)cc3O2)n1 (stereo in doubt) [Example 157, ethyl rel-2-[(2S,4S)-4-({[1-(2,2-difluoro-1,3-benzodioxol-5-yl)cyclopropyl]carbonyl}amino)-7-methoxy-3,4-dihydro-2H-chromen-2-yl]-1,3-thiazole-4-carboxylate]	1520	77
COc1ccc2c(c1)O[C@@H](C(=O)N1CCC(O)CC1)C[C@@H]2NC(=O)C1(c2ccc3c(c2)OC(F)(F)O3)CC1 (racemic) [Example 186, rac-1-(2,2-difluoro-1,3-benzodioxol-5-yl)-N-{(2R,4S)-2-[(4-hydroxypiperidin-1-yl)carbonyl]-7-methoxy-3,4-dihydro-2H-chromen-4-yl}cyclopropanecarboxamide]	1360	66
O=C(NC1CC2(CCNCC2)Oc2cc(F)ccc21)C1(c2ccc3c(c2)OC(F)(F)O3)CC1 (centres unmarked) [Example 93, 1-(2,2-difluoro-1,3-benzodioxol-5-yl)-N-(7-fluoro-3,4-dihydrospiro[chromene-2,4′-piperidin]-4-yl)cyclopropanecarboxamide]	2800	26
COc1ccc2c(c1)O[C@@H](C(=O)NC1CCS(=O)(=O)CC1)C[C@H]2NC(=O)C1(c2ccc3c(c2)OC(F)(F)O3)CC1 (racemic) [Example 172, rac-(2R,4R)-4-({[1-(2,2-difluoro-1,3-benzodioxol-5-yl)cyclopropyl]carbonyl}amino)-N-(1,1-dioxidotetrahydro-2H-thiopyran-4-yl)-7-methoxy-3,4-dihydro-2H-chromene-2-carboxamide]	4080	66
O=C(N[C@@H]1CC(CF)(CF)Oc2cc(F)ccc21)C1(c2ccc3c(c2)OC(F)(F)O3)CC1 [Example 79, 1-(2,2-difluoro-1,3-benzodioxol-5-yl)-N-[(4R)-7-fluoro-2,2-bis(fluoromethyl)-3,4-dihydro-2H-chromen-4-yl]cyclopropanecarboxamide]	7250	117
COc1ccc2c(c1)O[C@@H](C(=O)NC(CO)CO)C[C@@H]2NC(=O)C1(c2ccc3c(c2)OC(F)(F)O3)CC1 (racemic) [Example 199, rac-(2R,4S)-4-({[1-(2,2-difluoro-1,3-benzodioxol-5-yl)cyclopropyl]carbonyl}amino)-N-(1,3-dihydroxypropan-2-yl)-7-methoxy-3,4-dihydro-2H-chromene-2-carboxamide]	6890	27
Cc1ccc2c(c1)O[C@@H](c1cccc(C(=O)N3CCCC(CO)C3)c1)C[C@H]2NC(=O)C1(c2ccc3c(c2)OC(F)(F)O3)CC1 (stereo partly drawn) [Example 52, 1-(2,2-difluoro-1,3-benzodioxol-5-yl)-N-[(2R,4R)-2-(3-{[3-(hydroxymethyl)piperidin-1-yl]carbonyl}phenyl)-7-methyl-3,4-dihydro-2H-chromen-4-yl]cyclopropanecarboxamide]	1010	93
COc1ccc2c(c1)O[C@H](c1nc(C(=O)O)cs1)C[C@@H]2NC(=O)C1(c2ccc3c(c2)OC(F)(F)O3)CC1 (stereo in doubt) [Example 158, rel-2-[(2S,4S)-4-({[1-(2,2-difluoro-1,3-benzodioxol-5-yl)cyclopropyl]carbonyl}amino)-7-methoxy-3,4-dihydro-2H-chromen-2-yl]-1,3-thiazole-4-carboxylic acid]	6650	101
COC(=O)c1ccc2c(c1)OCCC2NC(=O)C1(c2ccc3c(c2)OC(F)(F)O3)CC1 (centres unmarked) [Example 45, methyl 4-({[1-(2,2-difluoro-1,3-benzodioxol-5-yl)cyclopropyl]carbonyl}amino)-3,4-dihydro-2H-chromene-7-carboxylate]	1330	89
Cc1ccc2c(c1)O[C@@H](c1cccc(C(=O)O)c1)C[C@@H]2NC(=O)C1(c2ccc3c(c2)OC(F)(F)O3)CC1 [Example 15, 3-[(2R,4S)-4-({[1-(2,2-difluoro-1,3-benzodioxol-5-yl)cyclopropyl]carbonyl}amino)-7-methyl-3,4-dihydro-2H-chromen-2-yl]benzoic acid]	2470	101
COc1ccc2c(c1)OC(c1ccc(OC)c(OC)c1)CC2NC(=O)C1(c2ccc3c(c2)OC(F)(F)O3)CC1 (centres unmarked) [Example 62, 1-(2,2-difluoro-1,3-benzodioxol-5-yl)-N-[2-(3,4-dimethoxyphenyl)-7-methoxy-3,4-dihydro-2H-chromen-4-yl]cyclopropanecarboxamide]	690	135
